Like-named read-outs stand apart in the source and are kept apart here.
Legend:
[1] = Storage stability of composition containing 2.15% of benzoyl peroxide, […] of tazarotene, and […] of clindamycin (Example 8); format: physicochemical; details: Example 8 composition, initial […], 6 months
[2] = Storage stability of composition containing 2.02% of benzoyl peroxide, […] of tazarotene, and […] of clindamycin (Example 9); format: physicochemical; details: Example 9 composition, initial […]
[3] = Storage stability of composition containing 0.209% of tazarotene and 2.13% of clindamycin (Example 14); format: physicochemical; details: Example 14 composition, initial 0.209%
[4] = Storage stability of composition containing […] of tazarotene and […] of clindamycin (Example 16); format: physicochemical; details: Example 16 composition, initial […], 6 months
[5] = Storage stability of composition containing 2.02% of benzoyl peroxide and 0.099% of tazarotene (Example 17); format: physicochemical; details: Example 17 composition, initial […]
Description: (§1) The results are as follows:

[6] = Storage stability of composition containing 5.18% of benzoyl peroxide and 0.099% of tazarotene (Example 18); format: physicochemical; details: Example 18 composition, initial […]
Description: as §1

[7] = Example 6 composition, initial […]
[8] = Example 7 composition, initial […]
[9] = Example 11 composition, initial […]
[10] = Example 12 composition, initial […]
[11] = Example 13 composition, initial […]
[12] = Example 15 composition, initial 0.109%

## CCOC(=O)c1ccc(C#Cc2ccc3c(c2)C(C)(C)CCS3)nc1 [Tazarotene]
[1]; 6° C.
  Tazarotene (as % w/w): 0.099 % w/w
[1]; 25° C.
  Tazarotene (as % w/w): 0.097 % w/w
[1]; 30° C.
  Tazarotene (as % w/w): 0.079 % w/w
[1]; 40° C.
  Tazarotene (as % w/w): 0.057 % w/w
[2]; 6 months, 6° C.
  Tazarotene (as % w/w): 0.104 % w/w
[2]; 6 months, 25° C.
  Tazarotene (as % w/w): 0.089 % w/w
[2]; 6 months, 30° C.
  Tazarotene (as % w/w): 0.089 % w/w
[2]; 6 months, 40° C.
  Tazarotene (as % w/w): 0.003 % w/w
[2]; 90 days, 6° C.
  Tazarotene (as % w/w): 0.103 % w/w
[2]; 90 days, 25° C.
  Tazarotene (as % w/w): 0.092 % w/w
[2]; 90 days, 30° C.
  Tazarotene (as % w/w): 0.090 % w/w
[2]; 90 days, 40° C.
  Tazarotene (as % w/w): 0.071 % w/w
[3]; 4 weeks, 25° C.
  Tazarotene (as % w/w): 0.208 % w/w
[3]; 4 weeks, 30° C.
  Tazarotene (as % w/w): 0.208 % w/w
[3]; 4 weeks, 40° C.
  Tazarotene (as % w/w): 0.205 % w/w
[3]; 6 months, 25° C.
  Tazarotene (as % w/w): 0.206 % w/w
[3]; 6 months, 30° C.
  Tazarotene (as % w/w): 0.206 % w/w
[3]; 6 months, 40° C.
  Tazarotene (as % w/w): 0.205 % w/w
[3]; 90 days, 25° C.
  Tazarotene (as % w/w): 0.204 % w/w
[3]; 90 days, 30° C.
  Tazarotene (as % w/w): 0.208 % w/w
[3]; 90 days, 40° C.
  Tazarotene (as % w/w): 0.208 % w/w
[4]; 6° C.
  Tazarotene (as % w/w): 0.101 % w/w
[4]; 25° C.
  Tazarotene (as % w/w): 0.102 % w/w
[4]; 30° C.
  Tazarotene (as % w/w): 0.104 % w/w
[4]; 40° C.
  Tazarotene (as % w/w): 0.103 % w/w
[5]; 6 months, 6° C.
  Tazarotene (as % w/w): 0.108 % w/w
[5]; 6 months, 25° C.
  Tazarotene (as % w/w): 0.081 % w/w
[5]; 6 months, 30° C.
  Tazarotene (as % w/w): 0.070 % w/w
[5]; 6 months, 40° C.
  Tazarotene (as % w/w): 0.009 % w/w
[5]; 90 days, 6° C.
  Tazarotene (as % w/w): 0.106 % w/w
[5]; 90 days, 25° C.
  Tazarotene (as % w/w): 0.088 % w/w
[5]; 90 days, 30° C.
  Tazarotene (as % w/w): 0.085 % w/w
[5]; 90 days, 40° C.
  Tazarotene (as % w/w): 0.044 % w/w
[6]; 6 months, 6° C.
  Tazarotene (as % w/w): 0.106 % w/w
[6]; 6 months, 25° C.
  Tazarotene (as % w/w): 0.088 % w/w
[6]; 6 months, 30° C.
  Tazarotene (as % w/w): 0.083 % w/w
[6]; 6 months, 40° C.
  Tazarotene (as % w/w): 0.004 % w/w
[6]; 90 days, 6° C.
  Tazarotene (as % w/w): 0.103 % w/w
[6]; 90 days, 25° C.
  Tazarotene (as % w/w): 0.093 % w/w
[6]; 90 days, 30° C.
  Tazarotene (as % w/w): 0.087 % w/w
[6]; 90 days, 40° C.
  Tazarotene (as % w/w): 0.051 % w/w
[7]; 2 weeks, 25° C.
  Tazarotene (as % w/w): 0.088 % w/w
[7]; 2 weeks, 30° C.
  Tazarotene (as % w/w): 0.085 % w/w
[7]; 2 weeks, 40° C.
  Tazarotene (as % w/w): 0.081 % w/w
[7]; 90 days, 6° C.
  Tazarotene (as % w/w): 0.094 % w/w
[7]; 90 days, 25° C.
  Tazarotene (as % w/w): 0.090 % w/w
[7]; 90 days, 30° C.
  Tazarotene (as % w/w): 0.085 % w/w
[7]; 90 days, 40° C.
  Tazarotene (as % w/w): 0.078 % w/w
[8]; 2 weeks, 6° C.
  Tazarotene (as % w/w): 0.104 % w/w
[8]; 2 weeks, 25° C.
  Tazarotene (as % w/w): 0.098 % w/w
[8]; 2 weeks, 30° C.
  Tazarotene (as % w/w): 0.088 % w/w
[8]; 2 weeks, 40° C.
  Tazarotene (as % w/w): 0.080 % w/w
[8]; 6 months, 6° C.
  Tazarotene (as % w/w): 0.106 % w/w
[8]; 6 months, 25° C.
  Tazarotene (as % w/w): 0.090 % w/w
[8]; 6 months, 30° C.
  Tazarotene (as % w/w): 0.082 % w/w
[8]; 6 months, 40° C.
  Tazarotene (as % w/w): 0.046 % w/w
[9]; 2 weeks, 6° C.
  Tazarotene (as % w/w): 0.106 % w/w
[9]; 2 weeks, 25° C.
  Tazarotene (as % w/w): 0.098 % w/w
[9]; 2 weeks, 40° C.
  Tazarotene (as % w/w): 0.089 % w/w
[9]; 6 months, 6° C.
  Tazarotene (as % w/w): 0.107 % w/w
[9]; 6 months, 25° C.
  Tazarotene (as % w/w): 0.093 % w/w
[9]; 6 months, 40° C.
  Tazarotene (as % w/w): 0.014 % w/w
[9]; 30 days, 6° C.
  Tazarotene (as % w/w): 0.105 % w/w
[9]; 30 days, 25° C.
  Tazarotene (as % w/w): 0.094 % w/w
[9]; 30 days, 40° C.
  Tazarotene (as % w/w): 0.084 % w/w
[9]; 90 days, 6° C.
  Tazarotene (as % w/w): 0.106 % w/w
[9]; 90 days, 25° C.
  Tazarotene (as % w/w): 0.093 % w/w
[9]; 90 days, 40° C.
  Tazarotene (as % w/w): 0.086 % w/w
[10]; 2 weeks, 6° C.
  Tazarotene (as % w/w): 0.099 % w/w
[10]; 2 weeks, 25° C.
  Tazarotene (as % w/w): 0.090 % w/w
[10]; 2 weeks, 30° C.
  Tazarotene (as % w/w): 0.090 % w/w
[10]; 2 weeks, 40° C.
  Tazarotene (as % w/w): 0.085 % w/w
[10]; 6 months, 6° C.
  Tazarotene (as % w/w): 0.096 % w/w
[10]; 6 months, 25° C.
  Tazarotene (as % w/w): 0.091 % w/w
[10]; 6 months, 30° C.
  Tazarotene (as % w/w): 0.088 % w/w
[10]; 6 months, 40° C.
  Tazarotene (as % w/w): None Detected
[10]; 90 days, 6° C.
  Tazarotene (as % w/w): 0.102 % w/w
[10]; 90 days, 25° C.
  Tazarotene (as % w/w): 0.090 % w/w
[10]; 90 days, 30° C.
  Tazarotene (as % w/w): 0.089 % w/w
[10]; 90 days, 40° C.
  Tazarotene (as % w/w): 0.081 % w/w
[11]; 2 weeks, first temperature column (head not given; 6° C. by analogy)
  Tazarotene (as % w/w): 0.097 % w/w
[11]; 2 weeks, fourth temperature column (head not given; 40° C. by analogy)
  Tazarotene (as % w/w): 0.081 % w/w
[11]; 2 weeks, second temperature column (head not given; 25° C. by analogy)
  Tazarotene (as % w/w): 0.089 % w/w
[11]; 2 weeks, third temperature column (head not given; 30° C. by analogy)
  Tazarotene (as % w/w): 0.086 % w/w
[11]; 6 months, first temperature column (head not given; 6° C. by analogy)
  Tazarotene (as % w/w): 0.098 % w/w
[11]; 6 months, fourth temperature column (head not given; 40° C. by analogy)
  Tazarotene (as % w/w): None Detected
[11]; 6 months, second temperature column (head not given; 25° C. by analogy)
  Tazarotene (as % w/w): 0.085 % w/w
[11]; 6 months, third temperature column (head not given; 30° C. by analogy)
  Tazarotene (as % w/w): 0.085 % w/w
[11]; 90 days, first temperature column (head not given; 6° C. by analogy)
  Tazarotene (as % w/w): 0.100 % w/w
[11]; 90 days, fourth temperature column (head not given; 40° C. by analogy)
  Tazarotene (as % w/w): 0.079 % w/w
[11]; 90 days, second temperature column (head not given; 25° C. by analogy)
  Tazarotene (as % w/w): 0.090 % w/w
[11]; 90 days, third temperature column (head not given; 30° C. by analogy)
  Tazarotene (as % w/w): 0.087 % w/w
[12]; 60 days, 6° C.
  Tazarotene (as % w/w): 0.11 % w/w
[12]; 60 days, 25° C.
  Tazarotene (as % w/w): 0.109 % w/w
[12]; 60 days, 30° C.
  Tazarotene (as % w/w): 0.105 % w/w
[12]; 60 days, 40° C.
  Tazarotene (as % w/w): 0.107 % w/w
[12]; 90 days, 6° C.
  Tazarotene (as % w/w): 0.107 % w/w
[12]; 90 days, 25° C.
  Tazarotene (as % w/w): 0.111 % w/w
[12]; 90 days, 30° C.
  Tazarotene (as % w/w): 0.108 % w/w
[12]; 90 days, 40° C.
  Tazarotene (as % w/w): 0.116 % w/w

Reference: US20070003585A1, “Topical skin treating compositions” (STIEFEL LABORATORIES, INC., priority 2005, published 2007)
